Source: patent US5112754A, “Tissue plasminogen-activating factor and nonoclonal antibody” (Snow Brand Milk Products Co., Ltd., priority 1985, dated 1992)
Where “and” joins values, the source holds several entries; their conditions need not be identical. Equal entries are not always repeated. Where a SMILES comes first, the peptide text is derived from it. [ ]: non-standard residue; d: D form. The star is where a group is joined. pNA = O=[N+]([O-])c1ccc(N*)cc1

What was measured:
Assay type in all cases: biochemical
[1] = biological target: Urokinase (high-molecular type) (Homo sapiens, UniProt P00749); assay: Km for synthetic substrate S-2288, urokinase high-molecular type; settings: for comparison
[2] = biological target: Urokinase (low-molecular type) (Homo sapiens, UniProt P00749); assay: Vmax for synthetic substrate S-2288, urokinase low-molecular type; settings: for comparison
[3] = biological target: T1, New type of plasminogen activator (non-urokinase tissue type, IMR-90 t-PA) produced by fibroblasts derived from human fetal lung tissue (Homo sapiens, UniProt P00750); assay: Km and Vmax for synthetic substrate S-2288, new type of plasminogen activator
T1 construct: Normal fibroblasts of strain IMR-90 (ATCC, CCL-186) derived from human fetal lung tissue were cultured in a serum-free medium; endogenous in cells; host or cells: IMR-90 (ATCC CCL-186) normal human fetal lung fibroblasts; protein purified from the serum-free culture medium
T1 sequence (P00750 36-562): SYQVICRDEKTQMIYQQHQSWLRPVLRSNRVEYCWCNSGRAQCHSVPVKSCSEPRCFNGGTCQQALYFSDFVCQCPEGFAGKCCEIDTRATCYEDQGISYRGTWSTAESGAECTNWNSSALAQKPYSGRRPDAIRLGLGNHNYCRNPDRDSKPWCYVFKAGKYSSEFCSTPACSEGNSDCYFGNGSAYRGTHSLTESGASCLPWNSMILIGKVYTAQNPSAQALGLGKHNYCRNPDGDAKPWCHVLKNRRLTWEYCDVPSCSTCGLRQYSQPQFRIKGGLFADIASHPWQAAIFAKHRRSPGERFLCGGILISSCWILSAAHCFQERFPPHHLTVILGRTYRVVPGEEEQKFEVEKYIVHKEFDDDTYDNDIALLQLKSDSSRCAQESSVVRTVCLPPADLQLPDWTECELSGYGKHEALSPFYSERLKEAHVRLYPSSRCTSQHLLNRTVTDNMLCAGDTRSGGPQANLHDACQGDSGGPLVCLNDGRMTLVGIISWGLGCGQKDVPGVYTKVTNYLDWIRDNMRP

Km [1]: 500 µM
Vmax for substrate S-2288 [2]: 5 × 10^-10 mol/min-unit
Km ([3]; purified new type of plasminogen activator): 1160 µM and ~1160 µM
Vmax for substrate S-2288 ([3]; purified new type of plasminogen activator, Table 1): 1.7 × 10^-8 mol/min-unit
Vmax for substrate S-2288 ([3]; purified plasminogen activator, unit as printed in running text b36): about 1.7×10^-8 mol/liter
SMILES: CC[C@@H](C)[C@@H](N)C(=O)N1CCC[C@H]1C(=O)N[C@@H](CCCNC(=N)N)C(=O)Nc1ccc([N+](=O)[O-])cc1 [S-2288, H.D.Ile-Pro-Arg-pNa.2HCl] (H-[dI]-Pro-Arg-pNA)
